The values below come from patent US20210392890A1, “COMPOSITIONS COMPRISING PYRIDINE CARBOXYLATE HERBICIDES AND PLANT GROWTH REGULATORS” (Corteva Agriscience LLC, priority 2018, published 2021).

Holding throughout (format): in vivo
Series [1] concerns Euphorbia heterophylla (poinsettia). Nature of the series: Greenhouse postemergence herbicidal effect on EPHHL. As to conditions: for Herbicidal Effects (% visual injury) EPHHL Obs: Ethephon 0 g/ha. The text has this:
(§1) Seeds of the desired test plant species were planted in a 90:10% v/v (volume/volume) mixture of PRO-MIX® BX (Premier Tech Horticulture, Quakertown, Pa., USA) and PROFILE® GREENS GRADE™ (Profile Products LLC, Buffalo Grove, Ill., USA) planting mixture, which typically has a pH of 5.2 to 6.2 and an organic matter content of at least 50 percent, in plastic pots with a surface area of 103.2 square centimeters (cm^2). In some aspects, to help ensure good germination and healthy plants, a fungicide treatment and/or other chemical or physical treatment was applied. The plants were grown for 7-36 days (d) in a greenhouse with an approximate 14-hour (h) photoperiod which was maintained at about 23° C. during the day and 22° C. during the night. Nutrients and water were added on a regular basis and supplemental lighting was provided with overhead metal halide 1000-Watt lamps as necessary. The plants were employed for testing when they reached the second or third true leaf stage.
(§2) Emulsifiable concentrates of each of each pyridine carboxylate herbicide (Compound A or Compound B) were prepared at 100 grams acid equivalent per liter (g ae/L). The emulsifiable concentrates also included a safener, cloquintocet-mexyl, at 120 grams active ingredient per liter (g ai/L). An aliquot of each emulsifiable concentrate was placed in a 25 mL glass vial and diluted with an aqueous mixture of 1.25% (v/v) ACTIROB® B esterified rapeseed oil (Bayer Crop Science, Research Triangle Park, N.C., USA) or MSO® Concentrate with LECI-TECH® methylated soybean oil (Loveland Products, Loveland, Colo., USA) to obtain concentrated stock solutions at the highest application rate for each herbicide, based upon a 12 milliliter (mL) application volume at a rate of 187 liters per hectare (L/ha). The concentrated stock solutions were further diluted with an aqueous mixture of 1.25% v/v ACTIROB® B or MSO® Concentrate with LECI-TECH® to obtain stock solutions at reduced application rates for each herbicide. Spray solutions of the herbicide combinations (Compound A or Compound B plus the PGR) were prepared by adding weighed amounts or aliquots of the PGR to the stock solutions of Compound A or Compound B to form 12-mL spray solutions in two-way combinations.
(§3) The spray solutions were applied to the plant material with an overhead Mandel track sprayer equipped with 8002E nozzles calibrated to deliver 187 L/ha over an application area of 0.503 square meters (m^2) at a spray height of 18 inches (43 centimeters (cm)) above the average plant canopy. Control plants were sprayed in the same manner with the solvent blank. All pyridine carboxylate herbicide (component a) application rates are given as “g ae/ha” and all PGR (component b) application rates are given as “g ai/ha.”
(§4) The treated plants and control plants were placed in a greenhouse as described above and watered by sub-irrigation to prevent wash-off of the test compounds. After 20-22 d, the condition of the test plants as compared with that of the control plants was determined visually and scored on a scale of 0 to 100 percent where 0 corresponds to no injury and 100 corresponds to complete kill.

Series [2] has as its system Polygonum convolvulus (wild buckwheat). Nature of the series: Greenhouse postemergence herbicidal effect on POLCO. As to conditions: for Herbicidal Effects (% visual injury) POLCO Obs: Ethephon 0 g/ha.
Excerpt: as §1, §2, §3, §4

The next series concerns rice (ORYSA). As to conditions: Ethephon 0 g/ha.
Excerpt: as §1
Emulsifiable concentrates of each of each pyridine carboxylate herbicide (Compound A or Compound B) were prepared at 100 grams acid equivalent per liter (g ae/L). The emulsifiable concentrates also included a safener, cloquintocet-mexyl, at 120 grams active ingredient per liter (g ai/L). […]
The treated plants and control plants were placed in a greenhouse as described above and watered by sub-irrigation to prevent wash-off of the test compounds. After 20-22 d, the condition of the test plants as compared with that of the control plants was determined visually and scored on a scale of 0 to 100 percent where 0 corresponds to no injury and 100 corresponds to complete kill. […]

For series [3], the system named is Setaria faberi (giant foxtail). Nature of the series: Greenhouse postemergence herbicidal effect on SETFA. As to conditions: for Herbicidal Effects (% visual injury) SETFA Obs: Ethephon 0 g/ha.
Excerpt: as §1, §2, §3, §4

The test system of series [4] is Brassica napus (spring rape). Nature of the series: Greenhouse postemergence herbicidal effect on BRSNN. As to conditions: for Herbicidal Effects (% visual injury) BRSNN Obs: Ethephon 0 g/ha.
Excerpt: as §1, §2, §3, §4

Where “and” joins values, the source holds several entries; their conditions need not be identical. Equal values may be shown once. Read-outs that look alike come from different tables or passages of the source.

Take `N#CCOC(=O)c1nc(-c2ccc3cc[nH]c3c2F)c(F)c(N)c1Cl` [Compound A, cyanomethyl 4-amino-3-chloro-5-fluoro-6-(7-fluoro-1H-indol-6-yl)pyridine-2-carboxylate]: the “Herbicidal Effects (% visual injury) EPHHL Obs” value in series [1] (Compound A 7.5 g/ha) and in series [1] (Compound A 10 g/ha) was 100% in each case. In addition, the “% visual injury Obs” value in series [1] (herbicide 7.5 g ae/ha alone) is 91%; in series [1] (herbicide 10 g ae/ha alone), 83%; in series [2] (herbicide 7.5 g ae/ha alone) it was 68% and 83% and 65%; in series [2] (herbicide 10 g ae/ha alone), 70% and 93% and 78%; in series [2] (herbicide 15 g ae/ha alone), 85%; in series [3] (herbicide 7.5 g ae/ha alone) it was 78%. For the same compound, the “% visual injury Obs” value is recorded as 80% in series [3] (herbicide 10 g ae/ha alone), 65% in series [4] (herbicide 7.5 g ae/ha alone) and 65% in series [4] (herbicide 10 g ae/ha alone). Besides, the “Herbicidal Effects (% visual injury) POLCO Obs” value in series [2] (Compound A 7.5 g/ha) and in series [2] (Compound A 10 g/ha) was 100% throughout. Moreover, the “Herbicidal Effects (% visual injury) ORYSA Obs” value in the series with rice (ORYSA) (Compound A 7.5 g/ha) was 15%; with rice (ORYSA) (Compound A 10 g/ha), 18%. Further, the “Herbicidal Effects (% visual injury) SETFA Obs” value in series [3] (Compound A 7.5 g/ha) is 55%; in series [3] (Compound A 10 g/ha), 70%. Also, the “Herbicidal Effects (% visual injury) BRSNN Obs” value in series [4] (Compound A 7.5 g/ha) is 45%; in series [4] (Compound A 10 g/ha), 55%.
